One data set concerns U937 cells. In words: TUNEL assay of apoptosis in U937 cells. The class given is cell-based. The conditions noted are these: for TUNEL positivity, time course: 50 ng/ml bortezomib. The protocol:
[…] Cells were harvested and fixed for TUNEL assays. The percentages of the TUNEL positive cells are indicated.
(§1) U937 cells were grown in RPMI with 10% fetal bovine serum and L-glutamine. Bortezomib was from Millennium Pharmaceutical Corp. (Cambridge, Mass.). Rottlerin was from Sigma (St. Louis, Mo.). PKC-δ monoclonal antibody was from BD Transduction Laboratories (San Jose, Calif.). Boc-D(Ome)-FMK (BAF) and Go6976 were from Calbiochem (San Diego, Calif.). The TUNEL assay (terminal deoxynucleotidyltransferase-mediated dUTP-biotin nick end labeling) was from Roche (Switzerland). Subcellular fractionation and western blotting were performed as described (Chen Jet al. Mol Cancer Ther. 2002;1:961-967).

In another data set the test system is PKC-δ. Kind of data set: Western blotting and subcellular fractionation for PKC-δ in U937 cells. The class given is cell-based. The protocol: U937 cells were treated with PMA (200 nM) or bortezomib (100 ng/ml) for 2 and 4 hours and cells were harvest for western blotting with antibody against PKC-δ. Same blot was probed with actin antibody as loading controls. […] U937 cells were treated with various concentrations of bortezomib and cells were subjected to subcellular fractionation to isolate mitochondria and cytoplasm. The whole cell lysates and fractions were analyzed with antibody against PKC-δ. […] U937 cells were treated with bortezomib (50 ng/ml) and/or caspase inhibitor BAF (30 μM) for 16 hours. Whole cell lysates were analyzed by western blotting with the PKC-δ antibody. […] Cells were treated with PMA (200 nM) for 6, 9 and 12 hours and subjected to subcellular fractionation. Western blot was probed with the PKC-δ antibody. M: mitochondria; C: cytoplasm.
as §1
For orientation: Immunoblotting shows a protein as a band on a membrane.

For data set [1] the following is noted: monomeric boronic acid; pH range of 2-6.5; cited from earlier work.
Data set [2] deals with HeLa cells. Kind of data set: Mitochondrial potential by MitoTracker Green and flow cytometry in HeLa cells. The class given is cell-based. As to conditions: 50 μM Z-VAD or 5 μM CsA 30 min, then AD198 16 h. On the technique in general: In flow cytometry, cells or beads pass a laser one at a time.
Description: Cells were incubated with MitoTracker Green at 37° C. for 20 min followed by flow cytometry analysis. The histogram represents the means±standard deviations from three independent experiments.
In data set [3] the test system is HeLa cells. Kind of data set: Apoptosis by PI staining and flow cytometry (subG1 population) in HeLa cells. Type of data set: cell-based. As to conditions: HeLa cells, 50 μM Z-VAD or 5 μM CsA 30 min, then AD198 16 h. The protocol:
Cell culture, transfection and treatment—HeLa cells were cultured in Dulbecco's modified Eagle's medium (DMEM) containing 10% fetal bovine serum, 2 mM L-glutamine and penicillin (100 units/ml)-streptomycin (100 μg/ml) at 37° C. in a humidified 5% CO2 atmosphere. HeLa cells at 90% confluence were transfected with different mammalian expression vectors using Lipofectamin 2000 according to the manufacturer's protocol (Invitrogen Inc., Carlsbad, Calif.). At 24 h or 48 h after transfection, cells were treated with 1:100 dilution of AD198 that was dissolved in dimethyl sulfoxide (DMSO). For down-regulation of PLS3, HeLa cells at 50% confluence were transfected with siRNA against PLS3 or a scrambled control. At 48 h, cells were treated with AD198 for 16 h and harvested for flow cytometry. The whole cell lysate was extracted for analysis with Western blotting.
Analysis of apoptosis and determination of the transmembrane potential in mitochondria—Cell death was quantified by propidium iodide (PI) staining, followed by flow cytometry (Becton-Dickinson). HeLa cells were fixed in 0.5 ml cold 70% ethanol at −20° C. overnight. Cell pellet were resuspended in 300 μl of PBS containing 0.025 mg/ml PI, 0.05% Triton X-100, 0.1 mg/ml RNase A and incubated at room temperature for 30 min. The DNA content was evaluated by FACScan. For mitochondrial potential analysis, HeLa cells were incubated with MitoTracker Green at 37° C. for 20 min. The cells were collected and washed with PBS and analyzed by FACScan.
Cell culture, transfection, selection and treatment—HeLa cells were cultured in Dulbecco's modified Eagle's medium (DMEM) with 10% fetal bovine serum, 2 mM L-glutamine, 100 units/ml penicillin and 100 μg/ml streptomycin at 37° C. HeLa cells at 90% confluence were transfected with different mammalian expression vectors or siRNA using Lipofectamin 2000 according to the manufacturer's protocol (Invitrogen Inc., Carlsbad, Calif.). At 48 h after transfection, cells were incubated with 5 μM AD198 or dimethyl sulfoxide (DMSO) for 4 h or 16 h. After transfection, cells were selected with 1 mg/ml G418 for 2 wk. After corresponding mock-transfected cells were killed by G418, the concentration of G418 was decreased to 0.5 mg/ml and maintained for another 2 wk. The whole cell lysates or subcellular fractions were extracted for Western blotting analysis (Liu et al. (2003)).
Analysis of apoptosis—HeLa cells were harvested and fixed in 70% ethanol at −20° C. overnight. Cells were then washed with PBS and stained with 0.025 mg/ml propidium iodide (PI), 0.05% Triton X-100, 0.1 mg/ml RNase A for 30 min at room temperature. The DNA content was analyzed by FACScan (Becton-Dickinson), and the subG0/G1 population was used to represent apoptosis.

Another data set deals with PLS3. In words: PLS3 threonine phosphorylation: Ni-bead pulldown of His-tagged PLS3, Western blot with PT antibody, HeLa cells. As to conditions: HeLa cells, AD198 (5 μM) along with Z-VAD or CsA, 2 h. The class given is cell-based. The protocol:
Pulldown of His-tagged proteins from transfected HeLa cells—Transfected HeLa cells were washed with ice-cold phosphate-buffered saline (PBS) and incubated in the lysis buffer (50 mM NaH2PO4, 500 mM NaCl, 20 mM imidazole, 1% Triton X-100, 20 mM 2-mercaptoethanol, pH8.0) for 5 min and sonicated briefly on ice. The lysates were centrifuged at 10,000×g for 10 min at 4° C. The supernatant was saved and the protein concentration was measured with the Bio-Rad protein assay (Bio-Rad Laboratories, Hercules, Calif.) and adjusted to same concentrations for each sample. The supernatants were incubated with Ni-beads on a shaker for 2 h at 4° C. Beads were then pelleted at 800×g for 2 min at 4° C. and washed with ice-cold wash buffer (50 mM NaH2PO4, 500 mM NaCl, 20 mM imidazole, 1% Triton X-100, pH8.0) for five times. Beads were resuspended in SDS sample buffer and analyzed by Western blotting.
Western blot analysis—Equal amounts of protein were analyzed by 10% SDS-PAGE and electrotransferred to Immobilon-P membranes (Millipore Corporation, Bedford, Mass.). Monoclonal PKC-δ, PT, and β-actin and polyclonal VDAC antibodies were used at 1:1,000 and polyclonal PLS3 antibody was used at 1:2,000 for immunoblotting. Secondary anti-mouse or anti-rabbit antibodies conjugated with horseradish peroxidase were used at 1:2,000 and incubated with the membrane for 1 h at room temperature. […]

Where [4] appears, read: U937 cells, 2 and 4 hours, PMA 200 nM, bortezomib 100 ng/ml.
Setting [5] is: U937 cells, bortezomib 16 hours.

≈ marks a conversion by molar mass, not a printed value. Residues, ends and D or L forms follow the SMILES beside them. *: point of attachment. Cbz = O=C(OCc1ccccc1)*; CH2F = FC*

For the compound `CC(=O)c1c(O)c(C)c(O)c(Cc2c(O)c3c(c(C(=O)/C=C/c4ccccc4)c2O)OC(C)(C)C=C3)c1O` [rottlerin], the “TUNEL positive cells with addition of rottlerin” value in the data set with U937 cells (bortezomib 5 ng/ml + rottlerin (10 μM), 16 hours) came out at 4.35%; in the data set on U937 cells (bortezomib 10 ng/ml + rottlerin (10 μM), 16 hours), 8.55%; in the data set on U937 cells (bortezomib 50 ng/ml + rottlerin (10 μM), 16 hours) it was 33.07%.

In the case of `CC(C)C[C@H](NC(=O)[C@H](Cc1ccccc1)NC(=O)c1cnccn1)B(O)O` [bortezomib, [(1R)-3-methyl-1-[[(2S)-1-oxo-3-phenyl-2-[(pyrazinylcarbonyl)amino]propyl]amino]butyl] boronic acid], the “TUNEL positivity, time course” value is “did not become TUNEL positive” with U937 cells (6 hours) and “strongly positive” in the data set on U937 cells (16 h). In the data set on U937 cells (Homo sapiens, U-937, U937 cells), the concentration for half-maximal inhibition (IC50) (commonly the concentration at which inhibition is half-maximal) lay within 0.01 to 0.05 µg/mL (≈ 0.026 to 0.13 µM). Moreover, the “concentration at which cells became TUNEL positive” value in the data set on U937 cells (U937 cells) came to 5 ng/mL. The “apoptosis by TUNEL assays” value stood at 8.02% with U937 cells (bortezomib 5 ng/ml, 16 hours); 19.85% with U937 cells (bortezomib 10 ng/ml, 16 hours); 76.07% with U937 cells (bortezomib 50 ng/ml, 16 hours). Further, the PKC-δ protein level result is “induced an increase of PKC-δ” in the data set with PKC-δ (setting [4]) and “the level of PKC-δ decreased” in the data set with PKC-δ (setting [5]). In addition, the “32 kD PKC-δ fragment” value with PKC-δ (setting [5]) is given as “new band at 32 kD”. Moreover, the solubility in water in data set [1] is 3300 to 3800 µg/mL.

`COC(=O)CC(NC(=O)OC(C)(C)C)C(=O)CF` (stereo not drawn) [BAF, Boc-D(Ome)-FMK]: the “effect on bortezomib-induced 32 kD PKC-δ band” value in the data set with PKC-δ (bortezomib (50 ng/ml) and BAF (30 μM), 16 hours) is listed as “disappearance of this 32 kD band”.

Consider `Cn1c2ccccc2c2c3c(c4c5ccccc5n(CCC#N)c4c21)CNC3=O` [Go6976], for which the “effect on bortezomib-induced apoptosis (TUNEL)” value with U937 cells (Go6976 (200 nM) with bortezomib, 16 hours) was “could not prevent bortezomib-induced apoptosis”.

Consider `CC(NC(=O)C(NC(=O)OCc1ccccc1)C(C)C)C(=O)NC(CC(=O)O)C(=O)CF` (stereo not drawn) [Z-VAD] (Cbz-Val-Ala-Asp-CH2F; configuration not given here), for which the “effect on AD198-induced mitochondrial permeability transition / loss of mitochondrial potential” value with HeLa cells [2] is “could not block”. The “effect on AD198-induced apoptosis” value in the data set with HeLa cells [3] was “suppressed”. Further, the “effect on AD198-induced threonine phosphorylation of PLS3” value with PLS3 is “not affected”.

For the compound `CCCCCCCCCCCCCC(=O)O[C@@H]1[C@@H](C)[C@@]2(O)[C@@H](C=C(CO)C[C@]3(O)C(=O)C(C)=C[C@@H]23)[C@@H]2C(C)(C)[C@]12OC(C)=O` [PMA], the PKC-δ protein level result in the data set with PKC-δ (setting [4]) is given as “down-regulated PKC-δ”. Moreover, the “PKC-δ localization after subcellular fractionation” value with PKC-δ (U937 cells, PMA (200 nM) 6, 9 and 12 hours) is “full-length PKC-δ and its degradation products in mitochondria”.
